Literature values in EP4574138A1, “A TABLET COMPOSITION COMPRISING IVACAFTOR” (Sanovel Ilac Sanayi Ve Ticaret Anonim Sirketi, priority 2023, dated 2025).

Details: background description of the drug substance

CC(C)(C)c1cc(C(C)(C)C)c(NC(=O)c2c[nH]c3ccccc3c2=O)cc1O [Ivacaftor, N-(2,4-di-tert-butyl-5-hydroxyphenyl)-1,4-dihydro-4-oxoquinoline-3-carboxamide]
solubility in water (practically insoluble in water): < 0.05 microgram/mL
